The source of these data is patent US8642590B2, “Alkylcyclohexylethers of dihydrotetraazabenzoazulenes” (Hoffmann-La Roche Inc., priority 2008, dated 2014).

Where a name gives a salt, the structure may show the parent alone.

In this test the target is T1, human V1a receptor (Homo sapiens, UniProt P37288).
T1 construct: expressed in transfected cells; host or cells: HEK293 cells, transiently transfected; cell membranes prepared
T1 sequence (P37288 whole entry): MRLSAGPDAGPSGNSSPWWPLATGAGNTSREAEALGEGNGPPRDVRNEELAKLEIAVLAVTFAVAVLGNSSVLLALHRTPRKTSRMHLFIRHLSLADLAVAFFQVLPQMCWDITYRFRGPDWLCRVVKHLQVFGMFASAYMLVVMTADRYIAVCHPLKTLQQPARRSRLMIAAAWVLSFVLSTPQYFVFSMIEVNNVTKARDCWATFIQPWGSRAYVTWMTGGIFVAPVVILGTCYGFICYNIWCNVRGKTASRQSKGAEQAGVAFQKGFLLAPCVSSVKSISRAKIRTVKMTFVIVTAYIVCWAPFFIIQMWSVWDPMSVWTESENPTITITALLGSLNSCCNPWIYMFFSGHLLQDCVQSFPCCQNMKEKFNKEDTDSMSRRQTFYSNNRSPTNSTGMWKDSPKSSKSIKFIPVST
Briefly: human V1a receptor binding study (3H-Vasopressin, SPA beads, HEK293 membranes). The conditions noted are these: membranes of HEK293 cells transiently transfected with human V1a receptor; 3H-Vasopressin; Ki calculated using the Cheng-Prussoff equation; read-out: pKi (hV1a) (converted). On the procedure: The human V1a receptor was cloned by RT-PCR from total human liver RNA. The coding sequence was subcloned in an expression vector after sequencing to confirm the identity of the amplified sequence. […] Cell membranes were prepared from HEK293 cells transiently transfected with the expression vector and grown in 20 liter fermenters with the following protocol.
50 g of cells are resuspended in 30 ml freshly prepared ice cold Lysis buffer (50 mM HEPES, 1 mM EDTA, 10 mM magnesium dichloride adjusted to pH=7.4+complete cocktail of protease inhibitor (Roche Diagnostics)). Homogenized with Polytron for 1 min and sonicated on ice for 2×2 minutes at 80% intensity (Vibracell sonicator). The preparation is centrifuged 20 min at 500 g at 4° C., the pellet is discarded and the supernatant centrifuged 1 hour at 43,000 g at 4° C. (19,000 rpm). The pellet is resuspended in 12.5 ml Lysis buffer+12.5 ml Sucrose 20% and homogenized using a Polytron for 1-2 min. The protein concentration is determined by the Bradford method and aliquots are stored at −80° C. until use. For binding studies 60 mg Yttrium silicate SPA beads (Amersham) are mixed with an aliquot of membrane in binding buffer (50 mM Tris, 120 mM sodium chloride, 5 mM potassium chloride, 2 mM Calcium dichloride, 10 mM magnesium dichloride) for 15 minutes with mixing. 50 μl of bead/membrane mixture is then added to each well of a 96 well plate, followed by 50 μl of 4 nM 3H-Vasopressin (American Radiolabeled Chemicals). For total binding measurement 100 μl of binding buffer are added to the respective wells, for non-specific binding 100 μl of 8.4 mM cold vasopressin and for compound testing 100 μl of a serial dilution of each compound in 2% dimethyl sulfoxide. The plate is incubated 1 h at room temperature, centrifuged 1 min at 1000 g and counted on a Packard Top-Count. Non-specific binding counts are subtracted from each well and data is normalized to the maximum specific binding set at 100%. To calculate an IC 50 the curve is fitted using a non-linear regression model (XLfit) and the Ki is calculated using the Cheng-Prussoff equation.
Consider `CCC(C)O[C@H]1CC[C@H](c2nnc3n2-c2ccc(Cl)cc2CN(C(=O)OC(C)(C)C)C3)CC1` (mixture of isomers) [Example 25, (RS)-trans-1-(4-sec-Butoxy-cyclohexyl)-8-chloro-4H,6H-2,3,5,10b-tetraaza-benzo[e]azulene-5-carboxylic acid tert-butyl ester], for which the Ki is 3.72 nM.

Regarding `CCC(C)O[C@H]1CC[C@H](c2nnc3n2-c2ccc(Cl)cc2CNC3)CC1` (mixture of isomers) [Example 26, (RS)-trans-1-(4-sec-Butoxy-cyclohexyl)-8-chloro-5,6-dihydro-4H-2,3,5,10b-tetraaza-benzo[e]azulene hydrochloride], the Ki is 12.6 nM.

`CCC(C)O[C@H]1CC[C@H](c2nnc3n2-c2ccc(Cl)cc2CN(C)C3)CC1` (mixture of isomers) [Example 27, (RS)-trans-1-(4-sec-Butoxy-cyclohexyl)-8-chloro-5-methyl-5,6-dihydro-4H-2,3,5,10b-tetraaza-benzo[e]azulene]: the Ki was 2.09 nM.

As to `COCC(C)O[C@H]1CC[C@H](c2nnc3n2-c2ccc(Cl)cc2CN(C(=O)OC(C)(C)C)C3)CC1` (mixture of isomers) [Example 45, (RS)-trans-8-Chloro-1-[4-(2-methoxy-1-methyl-ethoxy)-cyclohexyl]-4H,6H-2,3,5,10b-tetraaza-benzo[e]azulene-5-carboxylic acid tert-butyl ester], the Ki was 3.72 nM.

As for `COCC(C)O[C@H]1CC[C@H](c2nnc3n2-c2ccc(Cl)cc2CNC3)CC1` (mixture of isomers) [Example 46, (RS)-trans-8-Chloro-1-[4-(2-methoxy-1-methyl-ethoxy)-cyclohexyl]-5,6-dihydro-4H-2,3,5,10b-tetraaza-benzo[e]azulene hydrochloride], the Ki is 117 nM.

As to `COCC(C)O[C@H]1CC[C@H](c2nnc3n2-c2ccc(Cl)cc2CN(C)C3)CC1` (mixture of isomers) [Example 47, (RS)-trans-8-Chloro-1-[4-(2-methoxy-1-methyl-ethoxy)-cyclohexyl]-5-methyl-5,6-dihydro-4H-2,3,5,10b-tetraaza-benzo[e]azulene], the Ki is 11.2 nM.

In the case of `CC(CO)O[C@H]1CC[C@H](c2nnc3n2-c2ccc(Cl)cc2CN(C(=O)OC(C)(C)C)C3)CC1` (mixture of isomers) [Example 50, (RS)-trans-8-Chloro-1-[4-(2-hydroxy-1-methyl-ethoxy)-cyclohexyl]-4H,6H-2,3,5,10b-tetraaza-benzo[e]azulene-5-carboxylic acid tert-butyl ester], the Ki was 2.69 nM.

On to `CC(CO)O[C@H]1CC[C@H](c2nnc3n2-c2ccc(Cl)cc2CNC3)CC1` (mixture of isomers) [Example 51, (RS)-trans-2-[4-(8-Chloro-5,6-dihydro-4H-2,3,5,10b-tetraaza-benzo[e]azulen-1-yl)-cyclohexyloxy]-propan-1-ol hydrochloride], for which the Ki is 186 nM.

With `CC(CO)O[C@H]1CC[C@H](c2nnc3n2-c2ccc(Cl)cc2CN(C)C3)CC1` (mixture of isomers) [Example 52, (RS)-trans-2-[4-(8-Chloro-5-methyl-5,6-dihydro-4H-2,3,5,10b-tetraaza-benzo[e]azulen-1-yl)-cyclohexyloxy]-propan-1-ol], the Ki is 19.1 nM.

Take `CC(CF)O[C@H]1CC[C@H](c2nnc3n2-c2ccc(Cl)cc2CN(C)C3)CC1` (mixture of isomers) [Example 53, (RS)-trans-8-Chloro-1-[4-(2-fluoro-1-methyl-ethoxy)-cyclohexyl]-5-methyl-5,6-dihydro-4H-2,3,5,10b-tetraaza-benzo[e]azulene]: the Ki was 2.82 nM.

Turning to `CC(CC(F)(F)F)O[C@H]1CC[C@H](c2nnc3n2-c2ccc(Cl)cc2CN(C(=O)OC(C)(C)C)C3)CC1` (mixture of isomers) [Example 54, (RS)-trans-8-Chloro-1-[4-(3,3,3-trifluoro-1-methyl-propoxy)-cyclohexyl]-4H,6H-2,3,5,10b-tetraaza-benzo[e]azulene-5-carboxylic acid tert-butyl ester], the Ki is 8.51 nM.
